Data as given in US20230094176A1, “COMPOUNDS AND METHODS FOR IMPROVING IMPAIRED ENDOGENOUS FIBRINOLYSIS USING HISTONE DEACETYLASE INHIBITORS” (Cereno Scientific AB, priority 2011, published 2023).
Like-named read-outs stand apart in the source and are kept apart here.

Assays:
[1] = cited from earlier work
[2] = tested on: t-PA mRNA in HUVECs; experiment: C100: dose giving a 100% increase of t-PA mRNA in HUVEC (24 h); type: cell-based, human
Description: HUVECs are treated with different concentrations of first generation hydroxamates (TSA), second generation hydroxamates (Givinostat, Vorinostat, Belinostat, Panobinostat, SB939, PCI24781), benzamides (Mocetinostat, Entinostat) or short chain fatty acids (SCFA, Butyrate, Phenylbutyrate) for 24 h and t-PA mRNA was measured. The doses giving a 100% increase of t-PA mRNA (C100) was determined and compared to the maximum plasma concentration (Cmax) achieved when the maximum tolerated dose (MTD) of each substance is administered to humans, by dividing the C100 with the Cmax. […] In the table below the values for MTD and Cmax are from the following references (mentioned in the same order as in the table): Steele, N. L. et al Cancer Chemother Pharmacol 67(6):1273-9 (2011), Kelly, K. K. et al J Clin Oncol 23:3923-3931 (2005), Furlan, A. et al Mol Med 17(5-6) 353-362 (2011), Fukutomi, A. et al Invest New Drugs 2011 Apr. 12, Yong, W. P. et al Ann Oncol 22(11) 2516-22 (2011), Garcia-Manero, G. et al. Blood 112: 981-989 (2008), Ryan, Q. C. et al J Clin Oncol 23(17): 3912-3922 (2005), Edelman, M. J. et al Cancer Chemother Pharmacol 51: 439-444, http://www.drugs.com/pro/buphenyl.html *Butyrate was administered in the prodrug form tributyrin.

[3] = tested on: E-selectin; experiment: Regulation of E-selectin expression in endothelial cells; type: cell-based; conditions: endothelial cell gene expression
[4] = tested on: TNF-a suppressed t-PA mRNA in HUVECs; experiment: TNF-alpha suppression of t-PA mRNA in HUVEC: anti-inflammatory substances versus Givinostat; type: cell-based, human
Description: HUVECs were treated with TNF-alpha (TNF-a) for 1 h and then optimal concentrations of the anti.inflammatory substances acetylsalicylic acid (ASA, 1 mM) and ibuprofen (IBU, 1 mM) was added. Givinostat was also added to the cells for comparison. Cells were harvested and t-PA mRNA levels analysed according to example 1.

[5] = tested on: t-PA mRNA in endothelial cells; experiment: VPA dose-response on t-PA in the absence or presence of high TNF-alpha (10 ng/ml); type: cell-based, human
Description: In an attempt to mimic the potentially highly inflamed conditions in the local microenvironment surrounding an atherosclerotic plaque, endothelial cells were exposed to a high concentration (10 ng/ml) of TNF-alpha for 24 hours and then VPA was added for an additional 24 h. Cells were treated and mRNA prepared as described in example 1.

[6] = tested on: patients with epilepsy; conditions: cited from earlier work
[7] = maximum plasma concentration when the MTD is administered to humans

| Compound | Cmax [1, 7] | Cmax (ng/ml) [1, 7] | C100 tPA [2] | regulation of E-selectin expression [3] | MTD ([1]; humans, literature) | Cmax (ng/ml) ([1]; in vivo) | further results |
| --- | --- | --- | --- | --- | --- | --- | --- |
| O=C(/C=C/c1cccc(S(=O)(=O)Nc2ccccc2)c1)NO [Belinostat] | 4000 nM | ~1400 ng/mL | 0.2 µM | almost no effect | – | – | MTD ([1]; bidaily, oncology treatment or trials): 1000 mg bidaily |
| CCN(CC)Cc1ccc2cc(COC(=O)Nc3ccc(C(=O)NO)cc3)ccc2c1.Cl [Givinostat] | 650 nM | 300 ng/mL | 0.05 µM | strongly suppresses expression | 200 mg | – | increase of t-PA ([4]; HUVEC treated with TNF-a): 9 fold; effect on TNF-a mediated suppression of t-PA expression ([4]; HUVEC, TNF-a 1 h then substance, ASA 1 mM, IBU 1 mM): completely reverse; MTD ([1]; once daily, in healthy volunteers): 200 mg once daily |
| O=C(CCCCCCC(=O)Nc1ccccc1)NO [Vorinostat] | 1100 nM | – | 0.1 µM | – | 200 mg b.i.d | 300 ng/mL | MTD ([1]; once daily, oncology treatment or trials): 400 mg once daily |
| Nc1ccccc1NC(=O)c1ccc(CNc2nccc(-c3cccnc3)n2)cc1 [Mocetinostat] | – | – | 0.1 µM | strongly induces expression | – | 200 ng/mL | Cmax ([1]; in vivo): 500 nM |
| CCCC(CCC)C(=O)O [VPA, valproic acid] | – | – | – | almost no effect | – | – | maximum efficacy in inducing t-PA ([5]; TNF-alpha (10 ng/ml) treated cells): about 50 fold; maximum efficacy in inducing t-PA ([5]; control cells (no TNF-alpha)): about 10 fold; lowering of the risk of atherothrombotic events ([6]; patients with epilepsy (Olesen et al 2010)): up to 40%; plasma levels typically obtained during anticonvulsive treatment ([6]; patients, anticonvulsive VPA treatment): 350000 to 850000 nM |
